From patent US8802597B2, “Herbicidal pyrimidines” (E I du Pont de Nemours and Company, priority 2003, dated 2014)
Read-outs that look alike come from different tables or passages of the source.

Columns and labels:
Assay in all cases: Test C pre/postemergence
Type in all cases: in vivo
[1] = system: pigweed (Amaranthus retroflexus); details: Amaranthus retroflexus; for pest or weed control at 62 g/ha: 62 g ai/ha; for pest or weed control at 125 g/ha: 125 g ai/ha; for pest or weed control at 250 g/ha: 250 g ai/ha; for pest or weed control at 500 g/ha: 500 g ai/ha
In short: (§1)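 Applications: preemergence onto seeded soil and postemergence onto 1- to 4-leaf seedlings, compound carried in non-phytotoxic solvent plus surfactant. Kept in greenhouse 12 to 14 days. Scored visually relative to untreated controls, 0 (no effect) to 100 (complete control).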

[2] = system: common ragweed (Ambrosia elatior); details: Ambrosia artemisiifolia; for pest or weed control at 62 g/ha: 62 g ai/ha; for pest or weed control at 125 g/ha: 125 g ai/ha; for pest or weed control at 250 g/ha: 250 g ai/ha; for pest or weed control at 500 g/ha: 500 g ai/ha
In short: as §1

[3] = system: corn (Zea mays); details: Zea mays; for Corn plant response rating (crop injury, 0 = no effect, 100 = complete kill) at 62 g/ha: 62 g ai/ha; for Corn plant response rating (crop injury, 0 = no effect, 100 = complete kill) at 125 g/ha: 125 g ai/ha; for Corn plant response rating (crop injury, 0 = no effect, 100 = complete kill) at 250 g/ha: 250 g ai/ha; for Corn plant response rating (crop injury, 0 = no effect, 100 = complete kill) at 500 g/ha: 500 g ai/ha
In short: as §1

[4] = system: yellow nutsedge (Cyperus esculentus); details: Cyperus; for pest or weed control at 62 g/ha: 62 g ai/ha; for pest or weed control at 125 g/ha: 125 g ai/ha; for pest or weed control at 250 g/ha: 250 g ai/ha; for pest or weed control at 500 g/ha: 500 g ai/ha
In short: as §1

[5] = system: crabgrass (Digitaria sanguinalis); details: Digitaria sanguinalis; for pest or weed control at 62 g/ha: 62 g ai/ha; for pest or weed control at 125 g/ha: 125 g ai/ha; for pest or weed control at 250 g/ha: 250 g ai/ha; for pest or weed control at 500 g/ha: 500 g ai/ha
In short: as §1

[6] = system: Surinam grass (Brachiaria decumbens); details: Urochloa decumbens, post-emergence, Postemergence
In short: as §1

[7] = post-emergence, Postemergence, scale 0 to 100 (0 no effect, 100 complete control), read-out: Pigweed plant response rating
[8] = post-emergence, Postemergence, scale 0 to 100, read-out: Plant response rating, Pigweed
[9] = pre-emergence, Preemergence, scale 0 to 100, read-out: Plant response rating, Pigweed
[10] = post-emergence, Postemergence, scale 0 to 100 (0 no effect, 100 complete control), read-out: Ragweed plant response rating
[11] = post-emergence, Postemergence, scale 0 to 100, read-out: Plant response rating, Ragweed
[12] = pre-emergence, Preemergence, scale 0 to 100, read-out: Plant response rating, Ragweed
[13] = post-emergence, Postemergence, scale 0 to 100 (0 no effect, 100 complete control), read-out: Corn plant response rating
[14] = post-emergence, Postemergence, scale 0 to 100
[15] = pre-emergence, Preemergence, scale 0 to 100
[16] = post-emergence, Postemergence, scale 0 to 100 (0 no effect, 100 complete control), read-out: Nutsedge, Yellow plant response rating
[17] = post-emergence, Postemergence, scale 0 to 100, read-out: Plant response rating, Nutsedge, Yellow
[18] = pre-emergence, Preemergence, scale 0 to 100, read-out: Plant response rating, Nutsedge, Yellow
[19] = post-emergence, Postemergence, scale 0 to 100 (0 no effect, 100 complete control), read-out: Crabgrass plant response rating
[20] = post-emergence, Postemergence, scale 0 to 100, read-out: Plant response rating, Crabgrass
[21] = pre-emergence, Preemergence, scale 0 to 100, read-out: Plant response rating, Crabgrass

Nc1nc(C2CC2)nc(C(=O)OCc2ccccc2)c1Br [Compound 22, phenylmethyl 6-amino-5-bromo-2-cyclopropyl-4-pyrimidinecarboxylate]
pest or weed control at 62 g/ha [1, 7]: 85% | pest or weed control at 125 g/ha [1, 7]: 100% | pest or weed control at 250 g/ha [1, 8]: 100% | pest or weed control at 500 g/ha [1, 8]: 100% | pest or weed control at 62 g/ha ([1]; pre-emergence, Preemergence, scale 0 to 100, 0 no effect, 100 complete control, read-out: Plant response rating, Pigweed): 90% | pest or weed control at 125 g/ha [1, 9]: 100% | pest or weed control at 250 g/ha [1, 9]: 100% | pest or weed control at 500 g/ha [1, 9]: 100% | pest or weed control at 62 g/ha [2, 10]: 80% | pest or weed control at 125 g/ha [2, 10]: 85% | pest or weed control at 250 g/ha [2, 11]: 90% | pest or weed control at 500 g/ha [2, 11]: 90% | pest or weed control at 62 g/ha ([2]; pre-emergence, Preemergence, scale 0 to 100, 0 no effect, 100 complete control, read-out: Plant response rating, Ragweed): 90% | pest or weed control at 125 g/ha [2, 12]: 100% | pest or weed control at 250 g/ha [2, 12]: 100% | pest or weed control at 500 g/ha [2, 12]: 100% | Corn plant response rating (crop injury, 0 = no effect, 100 = complete kill) at 62 g/ha [3, 13]: 30% | Corn plant response rating (crop injury, 0 = no effect, 100 = complete kill) at 125 g/ha [3, 13]: 40% | Corn plant response rating (crop injury, 0 = no effect, 100 = complete kill) at 250 g/ha [3, 14]: 60% | Corn plant response rating (crop injury, 0 = no effect, 100 = complete kill) at 500 g/ha [3, 14]: 65% | Corn plant response rating (crop injury, 0 = no effect, 100 = complete kill) at 62 g/ha ([3]; pre-emergence, Preemergence, scale 0 to 100, 0 no effect, 100 complete control, read-out: Plant response rating, Corn): 40% | Corn plant response rating (crop injury, 0 = no effect, 100 = complete kill) at 125 g/ha ([3]; pre-emergence, Preemergence, scale 0 to 100, read-out: Plant response rating, Corn): 50% | Corn plant response rating (crop injury, 0 = no effect, 100 = complete kill) at 250 g/ha [3, 15]: 65% | Corn plant response rating (crop injury, 0 = no effect, 100 = complete kill) at 500 g/ha [3, 15]: 65% | pest or weed control at 62 g/ha [4, 16]: 0% | pest or weed control at 125 g/ha [4, 16]: 0% | pest or weed control at 250 g/ha [4, 17]: 0% | pest or weed control at 500 g/ha [4, 17]: 0% | pest or weed control at 62 g/ha ([4]; pre-emergence, Preemergence, scale 0 to 100, 0 no effect, 100 complete control, read-out: Plant response rating, Nutsedge, Yellow): 0% | pest or weed control at 125 g/ha [4, 18]: 0% | pest or weed control at 250 g/ha [4, 18]: 95% | pest or weed control at 500 g/ha [4, 18]: 95% | pest or weed control at 62 g/ha [5, 19]: 50% | pest or weed control at 125 g/ha [5, 19]: 55% | pest or weed control at 250 g/ha [5, 20]: 85% | pest or weed control at 500 g/ha [5, 20]: 85% | pest or weed control at 62 g/ha ([5]; pre-emergence, Preemergence, scale 0 to 100, 0 no effect, 100 complete control, read-out: Plant response rating, Crabgrass): 90% | pest or weed control at 125 g/ha [5, 21]: 95% | pest or weed control at 250 g/ha [5, 21]: 95% | pest or weed control at 500 g/ha [5, 21]: 100% | pest or weed control at 125 g/ha ([6]; 125 g ai/ha, scale 0 to 100 (0 no effect, 100 complete control), read-out: Surinam Grass plant response rating): 60% | pest or weed control at 500 g/ha ([6]; 500 g ai/ha, scale 0 to 100, read-out: Plant response rating, Surinam Grass): 85% | pest or weed control at 62 g/ha ([6]; 62 g ai/ha, scale 0 to 100 (0 no effect, 100 complete control), read-out: Surinam Grass plant response rating): 55%
